Several values for one entry are separate records, joined by “and”; a condition that tells them apart may be missing. Equal values may be shown once. Read-outs that look alike come from different tables or passages of the source.
How the values were obtained:
[1] = tested on: direct seeded rice
[2] = tested on: ORYSA (rice); test: Postemergence herbicidal safening in direct seeded rice, visual injury; settings: for Visual Injury (%) ‘Lemont’ ORYSA Obs / ORYSA Visual Injury (%) ‘Cheniere’ Obs / ORYSA Visual Injury (%) ‘Clearfield’ Obs / ORYSA Visual Injury (%) ‘Cocodrie’ Obs / ORYSA Visual Injury (%) ‘Lemont’ Obs / ORYSA Visual Injury (%) ‘M202’ Obs / ORYSA Visual Injury (%) ‘Wells’ Obs: alone; for ORYSA Visual Injury (%) ‘Cheniere’ Obs / ORYSA Visual Injury (%) ‘Clearfield’ Obs / ORYSA Visual Injury (%) ‘Cocodrie’ Obs / ORYSA Visual Injury (%) ‘Lemont’ Obs / ORYSA Visual Injury (%) ‘M202’ Obs / ORYSA Visual Injury (%) ‘Wells’ Obs: after 3 weeks (Table 14)
From the text: A=observed efficacy of active ingredient A at the same concentration as used in the mixture.
B=observed efficacy of active ingredient B at the same concentration as used in the mixture.

[3] = tested on: ECHCO; test: Postemergence herbicidal safening in direct seeded rice, visual injury on weed; assay type: in vivo; settings: alone, after 3 weeks
[4] = tested on: SEBEX; test: as above; assay type: in vivo; settings: alone, after 3 weeks
[5] = tested on: CYPDI; test: as above; assay type: in vivo; settings: alone, after 3 weeks
[6] = tested on: weed test plant species; test: Herbicidal safening in transplanted paddy rice, visual injury on weeds; assay type: in vivo; settings: after 3 weeks; for Visual Injury (%) CYPDI Obs: Cyperus difformis; for Visual Injury (%) MOOVA Obs: Monochoria vaginalis; for Visual Injury (%) SCPJU Obs: Scirpus juncoides
Experimental: (§1) Evaluation of Herbicidal Safening in Transplanted Paddy Rice
(§2) The prepared mud was dispensed in 250 mL aliquots into 480 mL non-perforated plastic pots with a surface area of 91.6 cm^2 leaving a headspace of 3 cm in each pot. Rice seeds were planted in Sun Gro MetroMix 306 planting mixture, which typically has a pH of 6.0 to 6.8 and an organic matter content of about 30 percent, in plastic plug trays. Seedlings at the second or third leaf stage of growth were transplanted into 650 mL of mud contained in 960 mL non-perforated plastic pots with a surface area of 91.6 cm^2 four days prior to herbicide application. The paddy was created by filling the 3 cm headspace of the pots with water. […] Nutrients were added as Osmocote (17:6:10, Nitrogen:Phosphorus:Potassium (N:P:K)+minor nutrients) at 2 grams (g) per cup.
(§3) For technical grade compounds and safeners, a weighed amount, determined by the highest rate to be tested, was placed in an individual 120 mL glass vial and was dissolved in 20 mL of acetone to obtain concentrated stock solutions. […] The concentrated stock solutions obtained were diluted with 20 mL of acetone. Applications were made by injecting an appropriate amount of the stock solution into the aqueous layer of the paddy. […] All treated plant material received the same concentration of acetone and crop oil concentrate.

[7] = tested on: transplanted paddy rice; test: Herbicidal safening in transplanted paddy rice, visual injury; assay type: in vivo, Oryza sativa; settings: after 3 weeks
Experimental: as §1, §2, §3

[8] = tested on: transplanted paddy rice; test: Safening activity of herbicide mixtures in transplanted paddy rice; assay type: in vivo, Oryza sativa
Experimental: as §2, §3
Forms of compound 1 were applied on an acid equivalent basis.

## COc1cc(OC)nc(Oc2cccc(Oc3nc(OC)cc(OC)n3)c2C(=O)O)n1 [Bispyribac sodium]
[1]; partner 28 g/ha alone
  ORYSA Visual Injury (%) ‘M202’ Obs: 15%
  ORYSA Visual Injury (%) ‘Wells’ Obs: 20%

## CCOC(=O)C(Cl)Cc1cc(-n2nc(C)n(C(F)F)c2=O)c(F)cc1Cl (stereo not drawn) [Carfentrazone-ethyl]
[1]; partner 56 g/ha alone
  ORYSA Visual Injury (%) ‘M202’ Obs: 20%
  ORYSA Visual Injury (%) ‘Wells’ Obs: 25%
[1]; partner 112 g/ha alone
  ORYSA Visual Injury (%) ‘M202’ Obs: 20%
  ORYSA Visual Injury (%) ‘Wells’ Obs: 35%

## CCCCCC(C)OC(=O)COc1ccc(Cl)c2cccnc12 (stereo not drawn) [Cloquintocet-mexyl]
[2]; Safener Alone, 560 g ai/ha, after 3 weeks
  ‘M202’ ORYSA Visual Injury (%) Obs: 3.3%
[2]; 35 g ai/ha, after 3 weeks
  Visual Injury (%) ‘Lemont’ ORYSA Obs: 0%
[2]; 70 g ai/ha, after 3 weeks
  Visual Injury (%) ‘Lemont’ ORYSA Obs: 0%
[2]; 140 g ai/ha, after 3 weeks
  Visual Injury (%) ‘Lemont’ ORYSA Obs: 0%
[2]; 140 g ai/ha
  ORYSA Visual Injury (%) ‘Cheniere’ Obs: 0%
  ORYSA Visual Injury (%) ‘Clearfield’ Obs: 0%
  ORYSA Visual Injury (%) ‘Cocodrie’ Obs: 0%
  ORYSA Visual Injury (%) ‘Lemont’ Obs: 0%
  ORYSA Visual Injury (%) ‘M202’ Obs: 0%
  ORYSA Visual Injury (%) ‘Wells’ Obs: 0%
[2]; 280 g ae/ha, after 3 weeks
  Visual Injury (%) ‘Lemont’ ORYSA Obs: 0%
[2]; 280 g ai/ha, after 3 weeks
  Visual Injury (%) ‘Lemont’ ORYSA Obs: 0%
[2]; 280 g ai/ha
  ORYSA Visual Injury (%) ‘Cheniere’ Obs: 0%
  ORYSA Visual Injury (%) ‘Clearfield’ Obs: 0%
  ORYSA Visual Injury (%) ‘Cocodrie’ Obs: 0%
  ORYSA Visual Injury (%) ‘Lemont’ Obs: 0%
  ORYSA Visual Injury (%) ‘M202’ Obs: 0%
  ORYSA Visual Injury (%) ‘Wells’ Obs: 0%
[3]; 35 g ai/ha
  Visual Injury (%) ECHCO Obs: 0%
[3]; 70 g ai/ha
  Visual Injury (%) ECHCO Obs: 0%
[3]; 140 g ai/ha
  Visual Injury (%) ECHCO Obs: 0%
[3]; 280 g ae/ha
  Visual Injury (%) ECHCO Obs: 0%
[3]; 280 g ai/ha
  Visual Injury (%) ECHCO Obs: 0%
[4]; 35 g ai/ha
  Visual Injury (%) SEBEX Obs: 0%
[4]; 70 g ai/ha
  Visual Injury (%) SEBEX Obs: 0%
[4]; 140 g ai/ha
  Visual Injury (%) SEBEX Obs: 0%
[4]; 280 g ae/ha
  Visual Injury (%) SEBEX Obs: 0%
[4]; 280 g ai/ha
  Visual Injury (%) SEBEX Obs: 0%
[5]; 35 g ai/ha
  Visual Injury (%) CYPDI Obs: 0%
[5]; 70 g ai/ha
  Visual Injury (%) CYPDI Obs: 0%
[5]; 140 g ai/ha
  Visual Injury (%) CYPDI Obs: 0%
[5]; 280 g ae/ha
  Visual Injury (%) CYPDI Obs: 0%
[5]; 280 g ai/ha
  Visual Injury (%) CYPDI Obs: 0%
[6]; safener 70 g ai/ha alone
  Visual Injury (%) CYPDI Obs: 0%
  Visual Injury (%) MOOVA Obs: 0%
[6]; safener 140 g ai/ha alone
  Visual Injury (%) CYPDI Obs: 0%
  Visual Injury (%) MOOVA Obs: 0%
[6]; safener 280 g ai/ha alone
  Visual Injury (%) CYPDI Obs: 0%
  Visual Injury (%) MOOVA Obs: 0%

## COc1c(Cl)ccc(-c2cc(N)c(Cl)c(C(=O)[O-])n2)c1F.[Na+] [Compound 1 Na + salt]
[2]; 70 g ai/ha, after 3 weeks
  Visual Injury (%) ‘Lemont’ ORYSA Obs: 50%
[3]; 70 g ai/ha
  Visual Injury (%) ECHCO Obs: 95%
[4]; 70 g ai/ha
  Visual Injury (%) SEBEX Obs: 100%
[5]; 70 g ai/ha
  Visual Injury (%) CYPDI Obs: 95%
[6]; herbicide 70 g ai/ha alone
  Visual Injury (%) CYPDI Obs: 100%
  Visual Injury (%) MOOVA Obs: 100%

## CCN(CC)CC.COc1c(Cl)ccc(-c2cc(N)c(Cl)c(C(=O)O)n2)c1F [Compound 1 TEA Salt]
[7]; herbicide 70 g ae/ha alone
  Visual Injury (%) ‘M202’ ORYSA Obs: 65%
  ‘M202’ ORYSA Visual Injury (%) Obs: 60%
[7]; herbicide 140 g ae/ha alone
  Visual Injury (%) ‘M202’ ORYSA Obs: 70%
  ‘M202’ ORYSA Visual Injury (%) Obs: 85%
[6]; herbicide 70 g ae/ha alone
  Visual Injury (%) SCPJU Obs: 100%
  Visual Injury (%) ECHCG Obs: 99%
[6]; herbicide 140 g ae/ha alone
  Visual Injury (%) SCPJU Obs: 100%
  Visual Injury (%) ECHCG Obs: 100%
[8]; compound 35 g/ha alone
  Visual Injury (%) ‘M202’ ORYSA Obs: 20%
[8]; compound 70 g/ha alone
  Visual Injury (%) ‘M202’ ORYSA Obs: 35% and 50%

## COc1c(Cl)ccc(-c2cc(N)c(Cl)c(C(=O)[O-])n2)c1Cl.[Na+] [Compound 2 Na + salt]
[2]; 70 g ai/ha, after 3 weeks
  Visual Injury (%) ‘Lemont’ ORYSA Obs: 15%
[3]; 70 g ai/ha
  Visual Injury (%) ECHCO Obs: 90%
[4]; 70 g ai/ha
  Visual Injury (%) SEBEX Obs: 100%
[5]; 70 g ai/ha
  Visual Injury (%) CYPDI Obs: 100%
[6]; herbicide 70 g ai/ha alone
  Visual Injury (%) CYPDI Obs: 100%
  Visual Injury (%) MOOVA Obs: 100%

## CCCCOC(=O)[C@@H](C)Oc1ccc(Oc2ccc(C#N)cc2F)cc1 [Cyhalofop-butyl]
[8]; partner 90 g/ha alone
  Visual Injury (%) ‘M202’ ORYSA Obs: 0%
[8]; partner 180 g/ha alone
  Visual Injury (%) ‘M202’ ORYSA Obs: 0%

— patent US8916498B2, “Safening 6-(trisubstituted phenyl)-4-amino-2-pyridinecarboxylate herbicide injury on direct seeded and transplanted paddy rice” (priority 2008, dated 2014)
